We go through three molecules from publication PMC9065260 (Frontiers in Pharmacology, 2022).

Structures are written as SMILES. Like-named read-outs stand apart in the source and are kept apart here.

In series [1] the test system is HCC827 cells. The series is described as follows: MTT assay for cell proliferation and cytotoxicity. It counts as cell-based. Conditions: Homo sapiens, 48 h, mean ± SD. (Formazan colour is commonly taken as a measure of viable cells.)
Procedure: (§3) The compounds were dissolved in DMSO to make a 50 mM stock solution and were diluted to the concentration of working solutions with the complete growth medium before administration.
(§4) Cells were seeded in 96-well plates with densities of 2,200–2,500 cells/well in 100 μL. One day after seeding, the concentration of the test compounds between 0 and 50 μM, 0.1% DMSO was added to cells as control. […] After 48 h, MTT was added and incubated in the plate for 1–4 h in the incubator.
Series [2] concerns KYSE450 cells. Nature of the series: MTT assay for cell proliferation and cytotoxicity. Format: cell-based. The note with it: Homo sapiens, read-out: IC50 KYSE450.
Procedure: as §3, §4
The subject of series [3] is KYSE410 cells. The series is described as follows: MTT assay for cell proliferation and cytotoxicity. Conditions: Homo sapiens, read-out: IC50 KYSE410. It counts as cell-based.
Procedure: as §3, §4
Series [4] relates to H1650 cells. The series is described as follows: MTT assay for cell proliferation and cytotoxicity. Format: cell-based. The note with it: Homo sapiens, read-out: IC50 H1650.
Procedure: as §3, §4
Series [5] relates to KYSE70 cells. Nature of the series: MTT assay for cell proliferation and cytotoxicity. Format: cell-based. Conditions: Homo sapiens, read-out: IC50 KYSE70.
Procedure: as §3, §4
In series [6] the test system is human esophageal epithelial cell SHEE. Nature of the series: MTT assay, toxicity against normal cells. It counts as cell-based. The note with it: read-out: IC50 SHEE.
Procedure: Cells were seeded in 96-well plates with densities of 2,200–2,500 cells/well in 100 μL. One day after seeding, the concentration of the test compounds between 0 and 50 μM, 0.1% DMSO was added to cells as control. Approximately 2200-2500 transfected cells in 100 μL were incubated in quintuplicate in 96-well plates. After 48 h, MTT was added and incubated in the plate for 1–4 h in the incubator.
Series [7] deals with KYSE450TR cells. Nature of the series: Flow cytometry detection for cell apoptosis (Annexin V/PI). Conditions: 48 h. It counts as cell-based, human. How it is done: (§1) Cell apoptosis analysis was carried out by flow cytometry using the Annexin V/PI apoptosis methods. […] The cells were harvested and incubated with 250 μL of 1 × Annexin V binding buffer containing 5 μL of PI and 5 μL of FITC Annexin V (final concentration 1.8 μg/ml, Biolegend cat: 640945) for 15 min at room temperature in the dark. Then 200 µL of 1 × binding buffer was added for flow cytometry analysis (BD FACSCalibur™ Flow Cytometer).
Background: A flow cytometer gives signals particle by particle.

The subject of series [8] is KYSE450 cells. The series is described as above. Conditions: 48 h. It counts as cell-based, human. How it is done: as §1
Series [9] concerns KYSE450TR cells. The series is described as follows: MTT assay, drug-resistant cell line. It counts as cell-based, human.
Procedure: as §3, §4
Series [10] deals with HCC827GR cells. The series is described as follows: MTT assay, drug-resistant cell line. It counts as cell-based, human.
Procedure: as §3, §4
Series [11] has as its system H1650TR cells. The series is described as follows: MTT assay, drug-resistant cell line. Format: cell-based, human.
Procedure: as §3, §4
Series [12] concerns KYSE70TR cells. Nature of the series: MTT assay, drug-resistant cell line. It counts as cell-based, human.
Procedure: as §3, §4
In series [13] the test system is KYSE410TR cells. Nature of the series: MTT assay, drug-resistant cell line. Format: cell-based, human.
Procedure: as §3, §4
For series [14], the system named is KYSE 450TR. The series is described as follows: Resistance index determination of drug resistance cell lines. Format: cell-based, human. The note with it: for IC50: Homo sapiens, KYSE 450TR. How it is done:
(§2) […]. Three types of esophageal cancer cell lines KYSE70TR, KYSE410TR, and KYSE450TR which were resistant to paclitaxel, and NSCLC cell lines HCC827GR and H1650TR, which were resistant to gefitinib and paclitaxel, respectively, were also tested for the comparison purpose.

The test system of series [15] is H1650TR. Described as above. Format: cell-based, human. Conditions: for IC50: Homo sapiens, H1650TR. How it is done: as §2
Series [16] has as its system KYSE 70TR. The series is described as above. It counts as cell-based, human. The note with it: for IC50: Homo sapiens, KYSE 70TR. How it is done: as §2
Series [17] deals with KYSE 410TR. Described as above. Format: cell-based, human. Conditions: for IC50: Homo sapiens, KYSE 410TR. The procedure:
as §2

The test system of series [18] is KYSE 450. The series is described as above. Format: cell-based. The note with it: Homo sapiens. How it is done:
as §2

For series [19], the system named is KYSE 410. Described as above. It counts as cell-based. The note with it: Homo sapiens. How it is done: as §2
Series [20] deals with KYSE 70. The series is described as above. Conditions: Homo sapiens. It counts as cell-based. How it is done:
as §2

In series [21] the test system is H1650. Described as above. It counts as cell-based. The note with it: Homo sapiens. How it is done:
as §2

One may read the melting point as the temperature, or range, at which the solid turns liquid. As a reminder, the IC50 is the midpoint of a concentration-inhibition curve. `COCCOc1cc2ncnc(Nc3cccc(-c4cn(CCc5ccccc5)nn4)c3)c2cc1OCCOC` [Compound 3s, [6,7-Bis-(2-Methoxy-Ethoxy)-Quinazolin-4-yl]-{3-[1-Phenethyl-1H-(1,2,3)Triazol-4-yl]-Phenyl}-Amine]: the melting point was in the range of 109 to 112 °C. In [1], this molecule gave a concentration for half-maximal inhibition (IC50) of over 50 µM. In addition, the IC50 in [2] (KYSE-450, MTT, 48 h, mean ± SD) is over 50 µM. In addition, the IC50 in [3] (KYSE-410, MTT, 48 h, mean ± SD) was over 50 µM. The IC50 in series [4] (NCI-H1650, MTT, 48 h, mean ± SD) is over 50 µM. Also, in series [5] (KYSE-70, MTT, 48 h, mean ± SD), the IC50 was over 50 µM. The IC50 in series [6] (MTT, normal human esophageal epithelial cells, mean ± SD) came to 33.3 ± 3.43 µM.
On to `C#Cc1cccc(Nc2ncnc3cc(OCCOC)c(OCCOC)cc23)c1` [Erlotinib], for which the IC50 is 7.6 ± 0.51 µM in [2] (KYSE-450, 48 h); 5 ± 0.46 µM in series [3] (KYSE-410, 48 h); over 10 µM in series [9] (Homo sapiens, read-out: IC50 KYSE450TR, MTT, paclitaxel-resistant esophageal cancer cell line); over 20 µM in series [9] (read-out: IC50 KYSE450TR, MTT, paclitaxel-resistant esophageal cancer cell line); 14 ± 1.19 µM in series [4] (NCI-H1650, 48 h); over 50 µM in [5] (KYSE-70, 48 h). The IC50 in series [6] (Homo sapiens) was 21 ± 2.11 µM; in series [10] (Homo sapiens, read-out: IC50 HCC827GR, MTT, gefitinib-resistant lung cancer cell line), over 10 µM; in series [10] (read-out: IC50 HCC827GR, MTT, gefitinib-resistant lung cancer cell line) it was over 20 µM; in series [11] (Homo sapiens, read-out: IC50 H1650TR, MTT, paclitaxel-resistant lung cancer cell line) it was over 10 µM; in [11] (read-out: IC50 H1650TR, MTT, paclitaxel-resistant lung cancer cell line) it was over 20 µM; in series [12] (Homo sapiens, read-out: IC50 KYSE70TR, MTT, paclitaxel-resistant esophageal cancer cell line), over 10 µM. In addition, the IC50 in [12] (read-out: IC50 KYSE70TR, MTT, paclitaxel-resistant esophageal cancer cell line) is over 20 µM; in [13] (Homo sapiens, read-out: IC50 KYSE410TR, MTT, paclitaxel-resistant esophageal cancer cell line), over 10 µM; in [13] (read-out: IC50 KYSE410TR, MTT, paclitaxel-resistant esophageal cancer cell line), over 20 µM. Further, the “proportion of apoptotic cells” value was determined as 10.16% in series [7] (5 μM); 16.68% in series [7] (10 μM); 7.04% in series [8] (KYSE450, 5 μM); 8.94% in series [8] (KYSE450, 10 μM).
On to `CC(=O)O[C@H]1C(=O)[C@@]2(C)[C@H]([C@H](OC(=O)c3ccccc3)[C@]3(O)C[C@H](OC(=O)[C@H](O)[C@@H](NC(=O)c4ccccc4)c4ccccc4)C(C)=C1C3(C)C)[C@]1(OC(C)=O)CO[C@@H]1C[C@@H]2O` [paclitaxel], for which the IC50 is 0.266 ± 0.0661 µM in series [14] (24 h, read-out: 24 h IC50); 0.12 ± 0.0321 µM in [14] (48 h, read-out: 48 h IC50); 4.13 ± 0.208 µM in series [15] (24 h, read-out: 24 h IC50); 0.645 ± 0.045 µM in series [15] (48 h, read-out: 48 h IC50); 4.92 ± 0.274 µM in [16] (24 h, read-out: 24 h IC50); 1.12 ± 0.0352 µM in [16] (48 h, read-out: 48 h IC50). In addition, the IC50 in series [17] (24 h, read-out: 24 h IC50) is 6.4 ± 0.43 µM; in [17] (48 h, read-out: 48 h IC50) it was 1.71 ± 0.0864 µM; in [18] (KYSE 450, 24 h, read-out: 24 h IC50), 0.05503 ± 0.00033 µM; in [18] (KYSE 450, 48 h, read-out: 48 h IC50), 0.00782 ± 0.00084 µM; in series [19] (KYSE 410, 24 h, read-out: 24 h IC50), 1.28 ± 0.0693 µM; in series [19] (KYSE 410, 48 h, read-out: 48 h IC50), 0.052 ± 0.00345 µM. Besides, the IC50 in series [20] (KYSE 70, 24 h, read-out: 24 h IC50) stood at 0.64 ± 0.043 µM; in series [20] (KYSE 70, 48 h, read-out: 48 h IC50), 0.0202 µM; in series [21] (NCI-H1650, 24 h, read-out: 24 h IC50) it was 0.87 ± 0.0435 µM; in series [21] (NCI-H1650, 48 h, read-out: 48 h IC50), 0.0833 ± 0.00333 µM. In addition, the Resistance index in series [14] (KYSE 450TR vs KYSE 450, 24 h IC50) amounted to 4.84; in series [14] (KYSE 450TR vs KYSE 450, 48 h IC50) it was 15.38; in series [15] (H1650TR vs H1650, 24 h IC50) it was 4.74; in series [15] (H1650TR vs H1650, 48 h IC50), 7.74; in [16] (KYSE 70TR vs KYSE 70, 24 h IC50), 7.69; in series [16] (KYSE 70TR vs KYSE 70, 48 h IC50) it was 56. Further, the Resistance index in series [17] (KYSE 410TR vs KYSE 410, 24 h IC50) stood at 5; in [17] (KYSE 410TR vs KYSE 410, 48 h IC50), 32.88.
